For data set [1], the system named is Serratia marcescens expressing IMP-1 (CL5741). The class given is cell-based. The conditions noted are these: with imipenem 1 μg/ml; 95% inhibition of bacterial growth. A digest of the protocol:
(§1)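 Growth read by absorbance after 22–24 h at 35 °C in CAMHB, with test compound alone or combined with 1 μg/ml imipenem. Inocula came from overnight 35 °C blood-agar colonies, set to a defined OD600 and diluted 1:100. Value is the inhibitor concentration giving synergy.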

In data set [2] the test system is Klebsiella pneumoniae expressing VIM-1 (IHMA599644). Type of data set: cell-based. The conditions noted are these: with imipenem 1 μg/ml; 95% inhibition of bacterial growth. An outline of the steps: as §1
For data set [3], the system named is Pseudomonas aeruginosa PAO1 MB9798 (efflux+, IMP-1). The note with it: ratio MITC95 PA 9798/MITC95 PA 9799; imipenem at 2 μg/mL. An outline of the steps: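 Isogenic PAO1 pair (efflux+ MB9798, efflux− MB9799, both IMP-1) tested by microbroth MIC with fixed imipenem and/or ceftazidime, usually at CLSI breakpoint, plus fixed class A/C inhibitor against AmpC. MBL inhibitor titrated; concentration restoring susceptibility recorded and fold difference between strains taken as efflux extent.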

This note sets out measurements from patent publication US10544130B2, “Metallo-beta-lactamase inhibitors” (priority 2015, dated 2020).

Each structure is given as a SMILES string.

Regarding `C[C@H](N)CNS(=O)(=O)c1ccc(-c2ccnc(N)c2)c(-c2nn[nH]n2)c1S(N)(=O)=O` [Example 421, (S)-N^1-(2-aminopropyl)-4-(2-aminopyridin-4-yl)-3-(2H-tetrazol-5-yl)benzene-1,2-disulfonamide], the “Serratia marcescens (IMP-1) MITC95” value in data set [1] stood at 0.7813 µM. The “Klebsiella pneumoniae (VIM-1) MITC95” value in data set [2] was 1.563 µM. The corresponding values for `C[C@@H](N)CNS(=O)(=O)c1ccc(-c2ccnc(N)c2)c(-c2nn[nH]n2)c1S(N)(=O)=O` [Example 422, (R)-N^1-(2-aminopropyl)-4-(2-aminopyridin-4-yl)-3-(2H-tetrazol-5-yl)benzene-1,2-disulfonamide] are 0.7813 µM and 1.563 µM.

Regarding `Nc1ncccc1-c1ccc(S(=O)(=O)NC[C@@H]2CNCCN2)c(S(N)(=O)=O)c1-c1nn[nH]n1` [Example 313, (S)-4-(2-aminopyridin-3-yl)-N1-(piperazin-2-ylmethyl)-3-(2H-tetrazol-5-yl)benzene-1,2-disulfonamide], in data set [2], the “Klebsiella pneumoniae (VIM-1) MITC95” value stood at 3.125 µM. The Efflux ratio in data set [3] was found to be 2.00. Turning to `Nc1ncc(-c2cccc(-c3ccc(S(=O)(=O)N[C@@H]4CCNC4)c(S(N)(=O)=O)c3-c3nnn[nH]3)n2)[nH]1` [Example 439, (R)-4-(6-(2-Amino-1H-imidazol-5-yl)pyridin-2-yl)-N^1-(pyrrolidin-3-yl)-3-(1H-tetrazol-5-yl)benzene-1,2-disulfonamide], the “Serratia marcescens (IMP-1) MITC95” value in data set [1] was 1.563 µM. In addition, the “Klebsiella pneumoniae (VIM-1) MITC95” value in data set [2] was 1.563 µM. As for `C[C@H](CN)NS(=O)(=O)c1ccc(-c2cccnc2NCCN)c(-c2nn[nH]n2)c1S(N)(=O)=O` [Example 460, (R)-4-(2-((2-aminoethyl)amino)pyridin-3-yl)-N1-(1-aminopropan-2-yl)-3-(2H-tetrazol-5-yl)benzene-1,2-disulfonamide], the “Serratia marcescens (IMP-1) MITC95” value in data set [1] came to 1.563 µM. Moreover, the “Klebsiella pneumoniae (VIM-1) MITC95” value in data set [2] was 1.563 µM. As for `C[C@H](CN)NS(=O)(=O)c1ccc(-c2cccc3c2nc(N)n3C)c(-c2nn[nH]n2)c1S(N)(=O)=O` [Example 395, (R)-4-(2-amino-1-methyl-1H-benzo[d]imidazol-4-yl)-N^1-(1-aminopropan-2-yl)-3-(2H-tetrazol-5-yl)benzene-1,2-disulfonamide], in data set [1], the “Serratia marcescens (IMP-1) MITC95” value came out at 1.563 µM. In data set [2], the “Klebsiella pneumoniae (VIM-1) MITC95” value is 1.563 µM.

As to `NCCNCCNS(=O)(=O)c1ccc(-c2ccc(N)nc2)c(-c2nn[nH]n2)c1S(N)(=O)=O` [Example 482, N1-(2-(−2-amineoethylamino)ethyl)-4-(6-aminopyridin-3-yl)-3-(2H-tetrazol-5-yl)benzene-1,2-disulfonamide], the “Serratia marcescens (IMP-1) MITC95” value in data set [1] is 0.7813 µM. Further, the “Klebsiella pneumoniae (VIM-1) MITC95” value in data set [2] is 1.563 µM. For `C[C@@H](CN)NS(=O)(=O)c1ccc(-c2cccc3sc(N)nc23)c(-c2nn[nH]n2)c1S(N)(=O)=O` [Example 389, 4-(2-amino-1,3-benzothiazol-4-yl)-N^1-[(1S)-2-amino-1-methylethyl]-3-(2H-tetrazol-S-yl)benzene-1,2-disulfonamide] the same measures were 3.125 µM and 3.125 µM. The corresponding values for `NCCNc1ncccc1-c1ccc(S(=O)(=O)N[C@@H]2CCNC2)c(S(N)(=O)=O)c1-c1nn[nH]n1` [Example 459, (R)-4-(2-((2-Aminoethyl)amino)pyridin-3-yl)-N1-(pyrrolidin-3-yl)-3-(2H-tetrazol-5-yl)benzene-1,2-disulfonamide] are 1.563 µM and 1.563 µM. Consider `NCCNS(=O)(=O)c1ccc(-c2cnc3cc[nH]c3c2)c(-c2nn[nH]n2)c1S(N)(=O)=O` [Example 359, N1-(2-aminoethyl)-4-(1H-pyrrolo[3,2-b]pyridin-6-yl)-3-(2H-tetrazol-5-yl)benzene-1,2-disulfonamide], for which the “Klebsiella pneumoniae (VIM-1) MITC95” value in data set [2] was found to be 1.563 µM. The Efflux ratio in data set [3] was 2.00. For the compound `Nc1ccc(-c2ccc(S(=O)(=O)NC[C@@H]3CCCN3)c(S(N)(=O)=O)c2-c2nn[nH]n2)cn1` [Example 488, (S)-4-(6-aminopyridin-3-yl)-N1-(pyrrolidin-2-ylmethyl)-3-(2H-tetrazol-5-yl)benzene-1,2-disulfonamide], the “Klebsiella pneumoniae (VIM-1) MITC95” value in data set [2] is 1.563 µM. Regarding `NC[C@H](O)CNS(=O)(=O)c1ccc(-c2ccc3nccn3c2)c(-c2nn[nH]n2)c1S(N)(=O)=O` [Example 418, (S)-N^1-(3-amino-2-hydroxypropyl)-4-(imidazo[1,2-a]pyridin-6-yl)-3-(2H-tetrazol-5-yl)benzene-1,2-disulfonamide], the “Serratia marcescens (IMP-1) MITC95” value in data set [1] was found to be 0.7813 µM. Further, the “Klebsiella pneumoniae (VIM-1) MITC95” value in data set [2] turned out to be 1.563 µM.

With `Nc1ccc(-c2ccc(S(=O)(=O)N[C@@H]3CCCNC3)c(S(N)(=O)=O)c2-c2nn[nH]n2)cn1` [Example 490, (R)-4-(6-aminopyridin-3-yl)-N1-(piperidin-3-yl)-3-(2H-tetrazol-5-yl)benzene-1,2-disulfonamide], in data set [1], the “Serratia marcescens (IMP-1) MITC95” value was determined as 1.563 µM. For the same compound, in data set [2], the “Klebsiella pneumoniae (VIM-1) MITC95” value came to 3.125 µM. As to `NCCNS(=O)(=O)c1ccc(-c2cccnc2N)c(-c2nn[nH]n2)c1S(N)(=O)=O` [Example 358, N1-(2-aminoethyl)-4-(2-aminopyridin-3-yl)-3-(2H-tetrazol-5-yl)benzene-1,2-disulfonamide], in data set [2], the “Klebsiella pneumoniae (VIM-1) MITC95” value worked out at 1.563 µM. In addition, the Efflux ratio in data set [3] turned out to be 2.00. Turning to `Nc1nc(-c2cccc(-c3ccc(S(=O)(=O)N[C@H]4CNC[C@H]4N)c(S(N)(=O)=O)c3-c3nn[nH]n3)c2)c[nH]1` [Example 327, 3′-(2-amino-1H-imidazol-4-yl)-N4-((3S,4R)-4-aminopyrrolidin-3-yl)-2-(2H-tetrazol-5-yl)[1,1′-biphenyl]-3,4-disulfonamide], the “Klebsiella pneumoniae (VIM-1) MITC95” value in data set [2] worked out at 1.563 µM. For the same compound, the Efflux ratio in data set [3] was 2.00. In the case of `NCC(CN)NS(=O)(=O)c1ccc(-c2ccc(N)nc2)c(-c2nn[nH]n2)c1S(N)(=O)=O` [Example 404, 4-(6-aminopyridin-3-yl)-N^1-(1,3-diaminopropan-2-yl)-3-(2H-tetrazol-5-yl)benzene-1,2-disulfonamide], in data set [2], the “Klebsiella pneumoniae (VIM-1) MITC95” value turned out to be 1.172 µM. The same measure, in the same setting: then `NCCNS(=O)(=O)c1ccc(-c2ccccc2NC(=O)CN)c(-c2nn[nH]n2)c1S(N)(=O)=O` [Example 452, 2-Amino-N-(4′-(N-(2-aminoethyl)sulfamoyl)-3′-sulfamoyl-2′-(2H-tetrazol-5-yl)-[1,1′-biphenyl]-2-yl)acetamide], with 6.25 µM. For the compound `Nc1nc(-c2cccc(-c3ccc(S(=O)(=O)N[C@H]4CCNC4)c(S(N)(=O)=O)c3-c3nn[nH]n3)c2)c[nH]1` [Example 294, (S)-3′-(2-amino-1H-imidazol-4-yl)-N4-(pyrrolidin-3-yl)-2-(2H-tetrazol-5-yl)-[1,1′-biphenyl]-3,4-disulfonamide], the “Klebsiella pneumoniae (VIM-1) MITC95” value in data set [2] is 1.563 µM. Besides, the Efflux ratio in data set [3] was 2.00.

For the compound `NC[C@H](N)CNS(=O)(=O)c1ccc(-c2cccc3[nH]c(N)nc23)c(-c2nn[nH]n2)c1S(N)(=O)=O` [Example 370, (S)-4-(2-amino-1H-benzo[d]imidazol-4-yl)-N1-(2,3-diaminopropyl)-3-(2H-tetrazol-5-yl)benzene-1,2-disulfonamide], the “Klebsiella pneumoniae (VIM-1) MITC95” value in data set [2] turned out to be 1.563 µM. Further, in data set [3], the Efflux ratio is listed as 1.00.
